Laboratory results reported in patent US11026426B2, “Oxadiazole and phenol derivatives as antibacterial and/or herbicidal agents” (NORTHERN ILLINOIS RESEARCH FOUNDATION, priority 2017, dated 2021).

Tests used:
Ec IspD [1] = molecular target: T1, Ec IspD (Escherichia coli, UniProt Q46893); test: Thermal shift (DSF) screening against Ec IspD; format: binding; details: for change in the observed melting temperature of Ec IspD: MicroSource Spectrum screening
Method: The library based screening technique in conjunction with the thermal shift assay was implemented to evaluate compounds from Spectrum collection.
All DSF experiments were performed in 50 mM phosphate buffer at pH 7.4, 150 mM NaCl, 1×SYPRO orange, 2% DMSO and 200 to 1000 nM of the enzyme with a total volume of 25 μL. Final enzyme concentrations used were […] for Ec IspD and 0.5 μM for Bt IspD. Samples were measured on a Bio-Rad iQ5 Real-Time PCR (Bio-Rad Life Sciences) using a temperature range of 25 to 95° C. at a rate of 1° C. per minute with the fluorescence measured every 0.5° C. every 10 seconds with wavelengths of 530 and 570 nm used for excitation and emission, respectively. The melting temperature (Tm value) was determined from the first derivative of the graph of relative fluorescence units vs. temperature.

[2] = molecular target: T2, Mycobacterium tuberculosis IspD (MtIspD) (Mycobacterium tuberculosis, UniProt P9WKG9); test: Thermal shift assay against MtIspD; format: binding
T2 sequence (P9WKG9 1-231): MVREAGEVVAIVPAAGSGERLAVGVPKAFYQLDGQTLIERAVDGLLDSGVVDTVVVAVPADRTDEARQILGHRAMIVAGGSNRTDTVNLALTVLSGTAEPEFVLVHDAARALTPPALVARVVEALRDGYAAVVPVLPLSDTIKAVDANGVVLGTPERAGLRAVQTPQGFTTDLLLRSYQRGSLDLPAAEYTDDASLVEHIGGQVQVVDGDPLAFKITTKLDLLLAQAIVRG

[3] = molecular target: Lycopersicon esculentum IspE (LeIspE) (Solanum lycopersicum, UniProt P93841); test: Thermal shift assay against LeIspE; format: binding
Lycopersicon esculentum IspE (LeIspE), sequence (P93841 89-401): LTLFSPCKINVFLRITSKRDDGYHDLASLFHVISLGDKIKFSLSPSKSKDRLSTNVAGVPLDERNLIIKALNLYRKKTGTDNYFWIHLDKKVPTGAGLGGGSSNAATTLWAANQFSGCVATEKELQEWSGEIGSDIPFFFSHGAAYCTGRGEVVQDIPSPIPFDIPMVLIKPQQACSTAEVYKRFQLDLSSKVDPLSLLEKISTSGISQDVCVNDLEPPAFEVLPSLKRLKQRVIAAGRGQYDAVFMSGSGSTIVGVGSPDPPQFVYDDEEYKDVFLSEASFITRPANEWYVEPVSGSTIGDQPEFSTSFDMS

lettuce seeds = test: Lettuce leaf assay; format: in vivo; parameters: key: 0 (no effect); 5(complete inhibition or bleaching); details: ranking 0-5
In short: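 Qualitative assay: compounds in volatile organic solvent applied to filter paper in a petri dish, solvent evaporated, lettuce seeds and 5 mL water added to give test concentrations. Germination, root development and leaf bleaching scored days 3 and 4, ranked 0 (no effect) to 5 (complete inhibition or bleaching).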

AtIspD = AtIspD (Arabidopsis thaliana, UniProt P69834); test: University of Hamburg photometric enzymatic inhibition assay AtIspD; format: biochemical; details: read-out: AtIspD IC50
AtIspD, sequence (P69834 62-302): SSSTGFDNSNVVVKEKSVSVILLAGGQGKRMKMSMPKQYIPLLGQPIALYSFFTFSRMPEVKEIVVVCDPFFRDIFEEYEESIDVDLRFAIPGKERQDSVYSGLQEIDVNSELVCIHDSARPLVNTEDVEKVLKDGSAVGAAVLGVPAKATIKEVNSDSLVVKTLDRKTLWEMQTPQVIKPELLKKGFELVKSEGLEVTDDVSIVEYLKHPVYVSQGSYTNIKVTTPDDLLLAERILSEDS
In short: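 Coupled photometric assay: 2.4 mU AtIspD with 1 mM (2R,3S)-2,3-dihydroxy-4-oxopentyl phosphate, 2.1 mM CTP, excess IspE (0.4 U), ATP, pyruvate kinase/lactate dehydrogenase and 460 μM NADH. Run in 100 mM Tris-HCl pH 8.0, 10 mM MgCl2, 1 mM DTT, 1.1% DMSO at 27 °C, monitored photometrically.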

LeIspE = LeIspE (Solanum lycopersicum, UniProt P93841); test: University of Hamburg photometric enzymatic inhibition assay LeIspE; format: biochemical, Lycopersicon esculentum; details: read-out: LeIspE IC50
LeIspE, sequence (P93841 89-401): as the sequence (P93841 89-401) above
In short: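 Photometric coupled assay with pyruvate kinase/lactate dehydrogenase following NADH (460 μM). Mix: 100 mM Tris-HCl pH 8.0, 10 mM MgCl2, 1 mM DTT, 2.5 mM phosphoenolpyruvate, 2 mM ATP, 1 mM 4-diphosphocytidyl-2-C-methylerythritol, 1.1% DMSO, 2.4 mU IspE; incubated at 27° C.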

AtIspF = AtIspF (Arabidopsis thaliana, UniProt Q9CAK8); test: University of Hamburg photometric enzymatic inhibition assay AtIspF; format: biochemical; details: read-out: AtIspF IC50
AtIspF, sequence (Q9CAK8 53-231): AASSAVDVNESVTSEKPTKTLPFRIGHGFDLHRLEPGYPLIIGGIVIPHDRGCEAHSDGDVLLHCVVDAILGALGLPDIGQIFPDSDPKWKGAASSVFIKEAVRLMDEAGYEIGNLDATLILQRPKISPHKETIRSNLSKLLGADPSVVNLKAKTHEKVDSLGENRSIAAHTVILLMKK
In short: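 Coupled photometric assay (CMP kinase/pyruvate kinase/lactate dehydrogenase, NADH consumption) with 2.4 mU AtIspF and 1 mM 4-diphosphocytidyl-2C-methylerythritol 2-phosphate, 2 mM ATP, in 100 mM Tris-HCl pH 8.0, 10 mM MgCl2, 1.1% DMSO. Monitored at 27 °C.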

[4] = test system: Burkholderia thailandensis; format: cell-based; details: preliminary screening; for BT score: score 0-3
Mycobacterium smegmatis = test: Antibacterial preliminary screening MS; format: cell-based; details: for MS score: score 0-3
Corynebacterium xerosis = test: Antibacterial preliminary screening CX; format: cell-based; details: score 0-3; note: key: 0 represents no inhibition; 3 is comparable to commercial antibiotic control
[5] = test system: Corynebacterium pseudodiphtheriae; test: Antibacterial preliminary screening CP; format: cell-based; details: score 0-3;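 note: 0 is no inhibition and 3 matches the commercial antibiotic control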
Escherichia coli = test: Antibacterial preliminary screening EC; format: cell-based; details: score 0-3; note: key: 0 represents no inhibition; 3 is comparable to commercial antibiotic control
Klebsiella pneumonia = test: Antibacterial preliminary screening KP; format: cell-based; details: score 0-3; note: key: 0 represents no inhibition; 3 is comparable to commercial antibiotic control
Micrococcus luteus = test: Antibacterial preliminary screening ML; format: cell-based; details: score 0-3; note: key: 0 represents no inhibition; 3 is comparable to commercial antibiotic control
Bacillus cereus = test: Antibacterial preliminary screening BC; format: cell-based; details: score 0-3; note: key: 0 represents no inhibition; 3 is comparable to commercial antibiotic control
Pseudomonas aeruginosa = test: Antibacterial preliminary screening PA; format: cell-based; details: for PA score: score 0-3
Ec IspD [6] = molecular target: T1, Ec IspD; test: EnzChek enzymatic activity assay Ec IspD; format: biochemical
Method: The EnzChek® assay has a phosphate sensitivity of 2-150 μM. To ensure there is no interference caused by assay components, three standards were performed on each plate: buffer only, without CTP and without MEP.
Here, for the plate-based assay, IspD converts MEP to CDP-ME pyrophosphate, which in turn is converted to inorganic phosphate (Pi) with the enzyme inorganic pyrophosphatase. The EnzChek® Phosphate Assay kit follows the formation of the inorganic phosphate through a reaction with 2-amino-6-mercapto-7-methylpurine riboside (MESG) and the enzyme purine nucleoside phosphorylase (PNP). This reaction converts the MESG into ribose 1-phosphate and 2-amino-6-mercapto-7-methylpurine resulting in a spectrophotometric shift in a maximum absorbance from 330 nm to 360 nm. Reactions were performed in 50 μL final volumes in 96-well clear flat bottom plates, and were initiated by addition of 50 ng purified Ec IspD. Absorbance at 360 nm was measured every 31 seconds for 20 minutes on a Synergy 2 Multi-Mode plate reader (BioTek), preheated to 37° C. Final concentration of reagents was as follows: 1×EnzChek® reaction buffer (50 mM Tris pH 7.5, 1 mM magnesium chloride (MgCl2), 100 μM sodium azide (NaN3)), 0.2 mM MESG, 1 U/ml PNP, 1 U/mL inorganic Pyrophosphatase (NEB), 200 mM CMP (Sigma), and 50 μM MEP (Echelon).

T1 sequence (Q46893 whole entry): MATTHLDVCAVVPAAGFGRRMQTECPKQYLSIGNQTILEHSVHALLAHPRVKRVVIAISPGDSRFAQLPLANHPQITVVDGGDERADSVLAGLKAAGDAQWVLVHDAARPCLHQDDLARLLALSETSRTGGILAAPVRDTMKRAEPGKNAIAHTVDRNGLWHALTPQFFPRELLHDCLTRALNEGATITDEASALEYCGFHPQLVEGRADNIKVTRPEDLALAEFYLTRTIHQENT

| Compound | MtIspD melting point change [2] | MtIspD melting temp [2] | LeIspE melting point change [3] | LeIspE melting temp [3] | Bleaching (lettuce seeds; 0.15 mM) | Germination (lettuce seeds; 0.15 mM) | Root Dev. (lettuce seeds; 0.15 mM) | Bleaching (lettuce seeds; 0.3 mM) | Germination (lettuce seeds; 0.3 mM) | Root Dev. (lettuce seeds; 0.3 mM) | IC50 (AtIspD) | IC50 (LeIspE) | IC50 (AtIspF) | BT score [4] | MS score (Mycobacterium smegmatis) | CX score (Corynebacterium xerosis) | CP score [5] | EC score (Escherichia coli) | KP score (Klebsiella pneumonia) | ML score (Micrococcus luteus) | also measured |
| --- | --- | --- | --- | --- | --- | --- | --- | --- | --- | --- | --- | --- | --- | --- | --- | --- | --- | --- | --- | --- | --- |
| [O-][n+]1ccccc1S [2-mercaptopyradine-N-oxide, 2-mercaptopyridine-N-oxide] | – | – | – | – | – | – | – | – | – | – | – | – | – | – | – | – | – | – | – | – | effect on thermal stability of Ec IspD (Ec IspD [1]): did not have an effect on the thermal stability |
| Cc1ccc(-c2nnc(-c3nc4ccccc4s3)o2)cc1 [HGN-338, 2-(benzo[d]thiazol-2-yl)-5-(p-tolyl)-1,3,4-oxadiazole] | 0.0 °C | 48.0 °C | −1.50 °C | 48.00 °C | 0 | 0 | 0 | 0 | 1 | 0 | > 500 µM | > 500 µM | > 500 µM | 0 | 0 | 0 | 0 | 0 | 0 | 0 | BC score (Bacillus cereus): 0; PA score (Pseudomonas aeruginosa): 0; melting point: 155 to 160 °C |
| Clc1ccc(-c2nnc(-c3nc4ccccc4s3)o2)cc1 [HGN-339, 2-(benzo[d]thiazol-2-yl)-5-(4-chlorophenyl)-1,3,4-oxadiazole] | 1.3 °C | 49.3 °C | −2.00 °C | 47.50 °C | 0 | 0 | 0 | 0 | 0 | 0 | 158 µM | > 500 µM | > 500 µM | 0 | 0 | 0 | 0 | 0 | 0 | 0 | BC score (Bacillus cereus): 0; PA score (Pseudomonas aeruginosa): 0; melting point: 161 to 163 °C |
| Oc1c(Br)cc(Br)cc1-c1cc2ccccc2[nH]1 [HGN-340, 2,4-dibromo-6-(1H-indol-2-yl)phenol] | 1.3 °C | 49.3 °C | 0.50 °C | 50.00 °C | 0 | 0 | 0 | 0 | 0 | 0 | 50 µM | > 500 µM | 470 ± 116 µM | 0 | 0 | 0 | 0 | 0 | 0 | 0 | BC score (Bacillus cereus): 2; effectiveness against Pseudomonas aeruginosa (Pseudomonas aeruginosa): moderately effective; PA score (Pseudomonas aeruginosa): 0; melting point: 104 to 110 °C |
| Clc1ccc(-c2nnc(-c3nc4ccccc4[nH]3)o2)cc1 [HGN-421, 2-(1H-benzo[d]imidazole-2-yl)-5-(4-chlorophenyl)-1,3,4-oxadiazole] | 0.8 °C | 48.8 °C | −1.50 °C | 48.00 °C | 0 | 1 | 0 | 0 | 1 | 0 | 88 µM | 298 ± 49 µM | 484 ± 95 µM | 1 | 1 | 0 | 0 | 0 | 0 | 0 | antibacterial activity against Burkholderia thailandensis [4]: slight antibacterial activity; antibacterial activity against Mycobacterium smegmatis (Mycobacterium smegmatis): slight antibacterial activity; BC score (Bacillus cereus): 0; PA score (Pseudomonas aeruginosa): 0; melting point: 250 to 255 °C |
| FC(F)(F)c1ccc(-c2nnc(-c3nc4ccccc4[nH]3)o2)cc1 [HGN-422, 2-(1H-benzo[d]imidazol-2-yl)-5-(4-(trifluoromethyl)phenyl)-1,3,4-oxadiazole] | 1.0 °C | 49.0 °C | −3.25 °C | 46.25 °C | 0 | 0 | 0 | 0 | 0 | 0 | 251 µM | 267 µM | > 500 µM | 1 | 1 | 0 | 0 | 0 | 0 | 0 | antibacterial activity against Burkholderia thailandensis [4]: slight antibacterial activity; antibacterial activity against Mycobacterium smegmatis (Mycobacterium smegmatis): slight antibacterial activity; BC score (Bacillus cereus): 0; PA score (Pseudomonas aeruginosa): 0; melting point: 275 to 280 °C |
| [O-][n+]1ccccc1[S][Zn][S]c1cccc[n+]1[O-] [Zinc Pyrathione] | – | – | – | – | – | – | – | – | – | – | – | – | – | – | – | – | – | – | – | – | change in the observed melting temperature of Ec IspD (Ec IspD [1]): −7.72 °C |
| CC(=O)[O-].CC(=O)[O-].[Cd+2] [cadmium acetate] | – | – | – | – | – | – | – | – | – | – | – | – | – | – | – | – | – | – | – | – | change in the observed melting temperature of Ec IspD (Ec IspD [1]): −13.53 °C |
| CC(C)c1cc2c(c(O)c1O)[C@@]1(C(=O)O)CCCC(C)(C)[C@@H]1CC2 [carnosic acid] | – | – | – | – | – | – | – | – | – | – | – | – | – | – | – | – | – | – | – | – | IC50 (Ec IspD [6]): 794 ± 100 µM |
| C[CH2][Hg][Cl] [ethyl mercuric chloride] | – | – | – | – | – | – | – | – | – | – | – | – | – | – | – | – | – | – | – | – | effect on thermal stability of Ec IspD (Ec IspD [1]): affected the stability of the enzyme |
